In paper PMC6964273 (ACS Omega, 2019):
Read-outs that look alike come from different tables or passages of the source.

Assays:
[1] = test system: SK-MEL3 cancer cell line; experiment: DFO assay; assay type: cell-based, human
[2] = test system: C3PV cell line; experiment: MTT cell viability assay on normal primary fibroblasts C3PV; assay type: cell-based, human; conditions: for IC50: 24 h, read-out: IC50 ± SD C3PV
[3] = test system: cervical cancer cell line (HeLa); experiment: MTT cell viability assay on HeLa; assay type: cell-based, human
[4] = test system: RPMI-7951 metastatic melanoma cancer cell line; experiment: MTT cell viability assay on RPMI-7951; assay type: cell-based, human; conditions: read-out: IC50 ± SD RPMI-7951
[5] = test system: RPMI-7951 cancer cell line; experiment: DFO assay; assay type: cell-based, human
[6] = test system: SK-MEL3 metastatic melanoma cancer cell line; experiment: MTT cell viability assay on SK-MEL3; assay type: cell-based, human; conditions: read-out: IC50 ± SD SK-MEL3
[7] = test system: SK-MEL24 metastatic melanoma cancer cell line; experiment: MTT cell viability assay on SK-MEL24; assay type: cell-based, human; conditions: read-out: IC50 ± SD SK-MEL24
[8] = test system: SK-MEL24 cancer cell line; experiment: DFO assay; assay type: cell-based, human
[9] = Stability in the cell culture medium by TLC and HPLC; assay type: physicochemical; conditions: 48 h, room temperature
[10] = Homo sapiens, SK-MEL3, 24 h, read-out: IC50 ± SD SK-MEL3 without DFO
[11] = Homo sapiens, SK-MEL3, read-out: IC50 ± SD SK-MEL3 with DFO
[12] = Homo sapiens, read-out: IC50 ± SD HeLa
[13] = Homo sapiens, RPMI-7951, 24 h, read-out: IC50 ± SD RPMI-7951 without DFO
[14] = Homo sapiens, RPMI-7951, read-out: IC50 ± SD RPMI-7951 with DFO
[15] = Homo sapiens, SK-MEL-24, 24 h, read-out: IC50 ± SD SK-MEL24 without DFO
[16] = Homo sapiens, SK-MEL-24, read-out: IC50 ± SD SK-MEL24 with DFO
[17] = read-out: IC50 ± SD SK-MEL3 without DFO, without DFO, treatment time 24 hours
[18] = read-out: IC50 ± SD RPMI-7951 without DFO, without DFO, treatment time 24 hours
[19] = read-out: IC50 ± SD SK-MEL24 without DFO, without DFO, treatment time 24 hours

Row | IC50 [3, 12] | IC50 ([4]; Homo sapiens, RPMI-7951, 24 h) | IC50 ([6]; Homo sapiens, SK-MEL3, 24 h) | IC50 ([7]; Homo sapiens, SK-MEL-24, 24 h) | SMILES | IC50 ([2]; Homo sapiens, C3PV) | also measured
1 | 1.76 ± 0.38 µM | 1.08 ± 0.56 µM | > 300 µM | 0.82 ± 0.37 µM | C[C@H]1[C@H](OC(=O)CCC(=O)O)O[C@@H]2O[C@@]3(C)CC[C@H]4[C@H](C)CC[C@@H]1[C@@]24OO3 [Compound 3, artesunate] | 1.68 ± 0.44 µM | IC50 [1, 10]: > 300 µM; IC50 [1, 11]: > 300 µM; IC50 [5, 13]: 1.08 ± 0.6 µM; IC50 [5, 14]: 1.09 ± 0.9 µM; IC50 [8, 15]: 0.82 ± 0.05 µM; IC50 [8, 16]: 0.9 ± 0.02 µM
2 | 1.41 ± 0.79 µM | 10.8 ± 1.4 µM | 2.53 ± 1.41 µM | 1.69 ± 0.15 µM | OCCc1ccc(O)cc1 [Compound 8, tyrosol] | 22.7 ± 1.83 µM | 
3 | 2.12 ± 0.94 µM | 3.95 ± 0.09 µM | 1.69 ± 1.24 µM | 3 ± 1.35 µM | COc1cc(/C=C/C(=O)CC(=O)/C=C/c2ccc(O)c(OC)c2)ccc1O [Compound 5, curcumin] | > 300 µM | 
4 |  |  |  |  | C=C(C)C1CC=C(COC(=O)CCC(=O)OC2OC3OC4(C)CCC5C(C)CCC(C2C)C35OO4)CC1 (stereo not drawn) [Compound 11iii] |  | IC50 [1, 17]: 5.24 ± 0.2 µM; cytotoxicity on normal cell line C3PV (in words) ([2]; C3PV, MTT): not cytotoxic; IC50 ([3]; read-out: IC50 ± SD HeLa, MTT): 1.76 ± 0.47 µM; IC50 ([4]; RPMI-7951, MTT, 24 h): 2.35 ± 1.52 µM; IC50 [5, 18]: 2.35 ± 0.9 µM; IC50 ([6]; SK-MEL3, MTT, 24 h): 5.24 ± 2.29 µM; IC50 ([7]; SK-MEL24, MTT, 24 h): 0.06 ± 0.1 µM; IC50 [8, 19]: 0.06 ± 0.01 µM
5 |  |  |  |  | C=CCc1ccc(OC(=O)CCC(=O)OC2OC3OC4(C)CCC5C(C)CCC(C2C)C35OO4)c(OC)c1 (stereo not drawn) [Compound 11ii] |  | IC50 ([2]; normal human primary fibroblast cell line, MTT): 6.79 ± 0.15 µM; IC50 ([3]; read-out: IC50 ± SD HeLa, MTT): 1.44 ± 1.09 µM; IC50 ([4]; RPMI-7951, MTT, 24 h): 1.21 ± 0.63 µM; IC50 ([6]; SK-MEL3, MTT, 24 h): 4.65 ± 1.8 µM; IC50 ([7]; SK-MEL24, MTT, 24 h): 5.44 ± 2.4 µM
6 | 0.006 ± 0.0014 µM | 0.013 µM | 4.73 ± 0.83 µM | 1.04 ± 0.31 µM | CC(=O)O[C@H]1C(=O)[C@@]2(C)[C@H]([C@H](OC(=O)c3ccccc3)[C@]3(O)C[C@H](OC(=O)[C@H](O)[C@@H](NC(=O)c4ccccc4)c4ccccc4)C(C)=C1C3(C)C)[C@]1(OC(C)=O)CO[C@@H]1C[C@@H]2O [paclitaxel] | 78.9 ± 0.79 µM | 
7 | 1.32 ± 0.26 µM | 0.91 ± 0.45 µM | 10.4 ± 0.61 µM | 3.23 ± 1.6 µM | C[C@H]1[C@@H](O)O[C@@H]2O[C@@]3(C)CC[C@H]4[C@H](C)CC[C@@H]1[C@@]24OO3 [Compound 2, dihydroartemisinin] | 0.68 ± 0.19 µM | 
8 |  |  |  |  | C[C@H]1[C@H](OC(=O)CCC(=O)Oc2ccc(CCO)cc2)O[C@@H]2O[C@@]3(C)CC[C@H]4[C@H](C)CC[C@@H]1[C@@]24OO3 [Compound 11iv] |  | IC50 [1, 17]: 2.33 ± 0.09 µM; cytotoxicity on normal cell line C3PV (in words) ([2]; C3PV, MTT): not cytotoxic; activity against HeLa (in words) ([3]; MTT): inactive; IC50 ([3]; read-out: IC50 ± SD HeLa, MTT): > 300 µM; IC50 ([4]; RPMI-7951, MTT, 24 h): 8.34 ± 3.06 µM; IC50 [5, 18]: 8.34 ± 2.7 µM; stability in the cell culture medium (ester bond; release of tyrosol) [9]: No traces of tyrosol were observed; IC50 ([6]; SK-MEL3, MTT, 24 h): 2.33 ± 1.18 µM; IC50 ([7]; SK-MEL24, MTT, 24 h): 2.32 ± 1.19 µM; IC50 [8, 19]: 2.32 ± 0.9 µM
9 | 3.03 ± 1.5 µM | 4.11 ± 2.1 µM | 1.22 ± 0.64 µM | 2.35 ± 1.05 µM | Cc1c(C)c2c(c(C)c1O)CC[C@@](C)(CCC[C@H](C)CCC[C@H](C)CCCC(C)C)O2 [Compound 9, α-tocopherol] | 74.1 ± 5.09 µM | 
10 | 4.68 ± 1.64 µM | 0.84 ± 0.34 µM | 1.16 ± 0.32 µM | 2.61 ± 0.34 µM | C=CCc1ccc(O)c(OC)c1 [Compound 6, eugenol] | 6.88 ± 0.085 µM | 
11 | 1.63 ± 0.4 µM | 1.71 ± 0.52 µM | 1.37 ± 0.59 µM | 2.69 ± 1.3 µM | C=C(C)[C@@H]1CC=C(CO)CC1 [Compound 7, perillyl alcohol] | 3.8 ± 0.28 µM | 

Row | SMILES | IC50 [3, 12] | IC50 ([4]; Homo sapiens, RPMI-7951, 24 h) | IC50 ([6]; Homo sapiens, SK-MEL3, 24 h) | IC50 ([7]; Homo sapiens, SK-MEL-24, 24 h) | IC50 ([2]; Homo sapiens, C3PV) | also measured
12 | C[C@@H]1CC[C@H]2[C@@H](C)C(=O)O[C@@H]3O[C@@]4(C)CC[C@@H]1[C@]32OO4 [Compound 1, Artemisinin] | 1.37 ± 0.59 µM | 3.62 ± 0.99 µM | 3.43 ± 0.86 µM | 8.66 ± 4.56 µM | > 300 µM | IC50 [1, 10]: 3.43 ± 0.8 µM; IC50 [1, 11]: > 300 µM; cytotoxicity on normal cell line C3PV (in words) ([2]; C3PV, MTT): not cytotoxic; IC50 [5, 13]: 3.62 ± 1.6 µM; IC50 [5, 14]: 29 ± 2.8 µM; IC50 [8, 15]: 8.66 ± 0.9 µM; IC50 [8, 16]: 27.8 ± 3.4 µM
